Some results are limits rather than exact numbers.

One data set in a line: Solubility in water. It counts as physicochemical.
Data set [1] is described as follows: Viscosity of aqueous solution. It counts as physicochemical.
Data set [2] can be described thus: Osmolality of aqueous solution. Format: physicochemical. How it is done:
(§1) Die Produkte der Erfindung der allgemeinen Formel I sind durch eine gute Löslichkeit in Wasser bei 20°C, eine Osmolalität in wässriger Lösung, die kleiner als die Osmolalität des Blutes (280 mOs/kg) ist, sowie durch eine niedrige allgemeine Toxizität gekennzeichnet, die als […] (LD₅₀) in Ratte bei intravenöser Gabe ausgedrückt wird.

The test system of the next data set is Ratte. In words: General (acute) toxicity, LD50 after intravenous administration. Format: in vivo. As to conditions: rat, intravenous administration (b7). The procedure:
as §1

Consider `NC(=O)c1c(I)c(C(=O)NC(CO)C(O)CO)c(I)c(N(CCO)C(=O)C(O)C(=O)N(CCO)c2c(I)c(C(N)=O)c(I)c(C(=O)NC(CO)C(O)CO)c2I)c1I` (stereo not drawn) [Beispiel 9, N,N'-Bis-(2-hydroxyethyl)-N,N'-bis-{5-carbamoyl-3-[N-(1-hydroxymethyl-2,3-dihydroxy-propyl)carbamoyl]-2,4,-6-triiodphenyl}hydroxymalonamid], for which, in “Solubility in water”, the “Löslichkeit in Wasser bei 20°C und 300 mg I/ml” value (from here on “Löslichkeit”) is recorded as below 60%.
For the compound `CC(=O)N(CC(O)CN(C(C)=O)c1c(I)c(C(=O)NCC(O)CO)c(I)c(C(=O)NCC(O)CO)c1I)c1c(I)c(C(=O)NCC(O)CO)c(I)c(C(=O)NCC(O)CO)c1I` (stereo not drawn) [IODIXANOL, Iodixanol, reference compound], the “Löslichkeit” value in the data set “Solubility in water” is above 60%. The “Viskosität bei 37°C und 300 mg I/ml” value in data set [1] is given as 8,7 mPa·s. The “Osmolatität bei 37°C und 300 mg I/ml” value in data set [2] was found to be 200 mOs/kg. In addition, the “LD₅₀ Ratte” value in the data set on Ratte is above 15 g I/kg.
`O=C(NCCO)c1c(I)c(C(=O)NCC(O)CO)c(I)c(N(CC(O)CO)C(=O)C(O)C(=O)N(CC(O)CO)c2c(I)c(C(=O)NCCO)c(I)c(C(=O)NCC(O)CO)c2I)c1I` (stereo not drawn) [Beispiel 11, N,N'-Bis-(2,3-dihydroxypropyl)-N,N'-bis-{3-[N-(2,3-dihydroxypropyl)carbamoyl]-5-[N-(2-hydroxyethyl)carbamoyl]-2,4,6-triiodphenyl}hydroxymalonamid]: the “Löslichkeit” value in the data set “Solubility in water” was above 60%. Further, in data set [1], the “Viskosität bei 37°C und 300 mg I/ml” value is 7,8 mPa·s. Also, the “Osmolatität bei 37°C und 300 mg I/ml” value in data set [2] is 210 mOs/kg. For the same compound, the “LD₅₀ Ratte” value in the data set on Ratte is recorded as above 15 g I/kg.
For the compound `CN(C(=O)C(=O)C(=O)N(C)c1c(I)c(C(N)=O)c(I)c(C(=O)NCC(O)CO)c1I)c1c(I)c(C(N)=O)c(I)c(C(=O)NCC(O)CO)c1I` (stereo not drawn) [Beispiel 14, N,N'-Dimethyl-N,N'-bis-{5-carbamoyl-3-[N-(2,3-dihydroxypropyl)carbamoyl]-2,4,6-triiodphenyl}cetomalonamid], the “Löslichkeit” value in the data set “Solubility in water” is below 60%.
Consider `CN(C(=O)C(O)C(=O)N(C)c1c(I)c(C(=O)NCC(O)CO)c(I)c(C(=O)NCC(O)CO)c1I)c1c(I)c(C(N)=O)c(I)c(C(=O)NCC(O)CO)c1I` (stereo not drawn) [Beispiel 7, N,N'-Dimethyl-N-{5-carbamoyl-3-[N-(2,3-dihydroxypropyl)carbamoyl]-2,4,6-triiodphenyl}-N'-{3,5-bis-[N-(2,3-dihydroxypropyl)carbamoyl]-2,4,6-triiodphenyl}hydroxymalonamid], for which, in the data set “Solubility in water”, the “Löslichkeit” value is above 60%. Also, the “Viskosität bei 37°C und 300 mg I/ml” value in data set [1] is 8,1 mPa·s. In addition, in data set [2], the “Osmolatität bei 37°C und 300 mg I/ml” value came out at 170 mOs/kg. In the data set with Ratte, the “LD₅₀ Ratte” value is listed as above 15 g I/kg.
For `NC(=O)c1c(I)c(C(=O)NCC(O)CO)c(I)c(N(CC(O)CO)C(=O)C(O)C(=O)N(CC(O)CO)c2c(I)c(C(N)=O)c(I)c(C(=O)NCC(O)CO)c2I)c1I` (stereo not drawn) [Beispiel 12, N,N'-Bis-(2,3-dihydroxypropyl)-N,N'-bis-{5-carbamoyl-3-[N-(2,3-dihydroxypropyl)carbamoyl]-2,4,6-triiodphenyl}-hydroxymalonamid], in that order: above 60%, 6,5 mPa·s, 240 mOs/kg and above 15 g I/kg.
For `O=C(NCCO)c1c(I)c(C(=O)NCC(O)CO)c(I)c(N(CC(O)CO)C(=O)CC(=O)N(CC(O)CO)c2c(I)c(C(=O)NCCO)c(I)c(C(=O)NCC(O)CO)c2I)c1I` (stereo not drawn) [Beispiel 4, N,N'-Bis-(2,3-hydroxypropyl)-N,N'-bis-{3-[N-(2,3-dihydroxypropyl)carbamoyl]-5-[N-(2-hydroxyethyl)carbamoyl]-2,4,6-triiodphenyl}malonamid], in that order: above 60%, 6,8 mPa·s, 190 mOs/kg and above 15 g I/kg.
For `CNC(=O)c1c(I)c(C(=O)NCC(O)CO)c(I)c(N(CCO)C(=O)C(O)C(=O)N(CCO)c2c(I)c(C(=O)NC)c(I)c(C(=O)NCC(O)CO)c2I)c1I` (stereo not drawn) [Beispiel 1, N,N-Bis-(2-hydroxyethyl)-N,N'-bis-(3-[N-(2,3-dihydroxypropyl)carbamoyl]-5-(N-methylcarbamoyl)-2,4,6-triiodphenyl}hydroxymalonamid], in the data set “Solubility in water”, the “Löslichkeit” value is recorded as below 60%.
As for `O=C(NCCO)c1c(I)c(C(=O)NCC(O)CO)c(I)c(N(CCO)C(=O)C(O)C(=O)N(CCO)c2c(I)c(C(=O)NCCO)c(I)c(C(=O)NCC(O)CO)c2I)c1I` (stereo not drawn) [Beispiel 10, N,N'-Bis-(2-hydroxyethyl)-N,N'-bis-{3-[N-(2,3-dihydroxypropyl)carbamoyl]-5-[N-(2-hydroxyethyl)carbamoyl]-2,4,6-triiodphenyl}hydroxymalonamid], the “Löslichkeit” value in “Solubility in water” was above 60%. Also, in data set [1], the “Viskosität bei 37°C und 300 mg I/ml” value is 7,3 mPa·s. Moreover, in data set [2], the “Osmolatität bei 37°C und 300 mg I/ml” value stood at 170 mOs/kg. The “LD₅₀ Ratte” value with Ratte is above 15 g I/kg.
On to `CN(C(=O)C(O)C(=O)N(C)c1c(I)c(C(N)=O)c(I)c(C(=O)NCC(O)CO)c1I)c1c(I)c(C(N)=O)c(I)c(C(=O)NCC(O)CO)c1I` (stereo not drawn) [Beispiel 5, N,N'-Dimethyl-N,N'-bis-{5-carbamoyl-3-[N-(2,3-dihydroxypropyl)carbamoyl]-2,4,6-triiodphenyl}hydroxymalonamid], for which the “Löslichkeit” value in “Solubility in water” is below 60%.
On the same count and under the same terms, with `CN(C(=O)C(O)C(=O)N(C)c1c(I)c(C(N)=O)c(I)c(C(=O)NC(CO)C(O)CO)c1I)c1c(I)c(C(N)=O)c(I)c(C(=O)NC(CO)C(O)CO)c1I` (stereo not drawn) [Beispiel 6, N,N'-Dimethyl-N,N'-bis-{5-carbamoyl-3-[N-(1-hydroxymethyl-2,3-dihydroxypropyl)carbamoyl]-2,4,6-triiodphenyl}-hydroxymalonamid] the figure was below 60%.
`CN(C(=O)C(=O)C(=O)N(C)c1c(I)c(C(=O)NCC(O)CO)c(I)c(C(=O)NCC(O)CO)c1I)c1c(I)c(C(=O)NCC(O)CO)c(I)c(C(=O)NCC(O)CO)c1I` (stereo not drawn) [Beispiel 13, N,N'-Dimethyl-N,N'-bis-{3,5-bis[N-(2,3-dihydroxypropyl)carbamoyl]-2,4,6-triiodphenyl}cetomalonamid]: the “Löslichkeit” value in “Solubility in water” is above 60%. In addition, the “Viskosität bei 37°C und 300 mg I/ml” value in data set [1] is recorded as 10,9 mPa·s. Besides, the “Osmolatität bei 37°C und 300 mg I/ml” value in data set [2] is reported as 160 mOs/kg. For the same compound, in the data set on Ratte, the “LD₅₀ Ratte” value is reported as above 15 g I/kg.
Turning to `CNC(=O)c1c(I)c(C(=O)NCC(O)CO)c(I)c(N(CC(O)CO)C(=O)C(O)C(=O)N(CC(O)CO)c2c(I)c(C(=O)NC)c(I)c(C(=O)NCC(O)CO)c2I)c1I` (stereo not drawn) [Beispiel 2, N,N'-Bis-(2,3-dihydroxypropyl)-N,N'-bis-{3-[N-(2,3-dihydroxypropyl)carbamoyl]-5-(N-methylcarbamoyl)-2,4,6-triiodphenyl}-hydroxymalonamid], the “Löslichkeit” value in the data set “Solubility in water” is below 60%.
Take `O=C(NCCO)c1c(I)c(C(=O)NCC(O)CO)c(I)c(N(CCO)C(=O)CC(=O)N(CCO)c2c(I)c(C(=O)NCCO)c(I)c(C(=O)NCC(O)CO)c2I)c1I` (stereo not drawn) [Beispiel 3, N,N'-Bis-(2-hydroxyethyl)-N,N'-bis-{3-[N-(2,3-dihydroxypropyl)-carbamoyl]-5-[N-(2-hydroxyethyl)carbamoyl]-2,4,6-triiodphenyl}-malonamid]: the “Löslichkeit” value in the data set “Solubility in water” is reported as above 60%. For the same compound, in data set [1], the “Viskosität bei 37°C und 300 mg I/ml” value is reported as 7,5 mPa·s. For the same compound, the “Osmolatität bei 37°C und 300 mg I/ml” value in data set [2] is reported as 160 mOs/kg. Further, the “LD₅₀ Ratte” value with Ratte is above 15 g I/kg.
Regarding `NC(=O)c1c(I)c(C(=O)NCC(O)CO)c(I)c(N(CCO)C(=O)C(O)C(=O)N(CCO)c2c(I)c(C(N)=O)c(I)c(C(=O)NCC(O)CO)c2I)c1I` (stereo not drawn) [Beispiel 8, N,N'-Bis-(2-hydroxyethyl)-N,N'-bis-{5-carbamoyl-3-[N-(2,3-dihydroxypropyl)carbamoyl]-2,4,6-triiodphenyl}-hydroxymalonamid], the “Löslichkeit” value in the data set “Solubility in water” is listed as below 60%.

The values above are taken from patent publication EP0673922A1, “Non-ionic iodinated dimers as X-ray contrast agents, process for their preparation and pharmaceutical compositions containing them” (CENTRO INVESTIGACION JUSTESA IMAGEN S.A., priority 1994, dated 1995).
